ChEMBL document CHEMBL5537127, “Design and synthesis of novel hederagonic acid analogs as potent anti-inflammatory compounds capable of protecting against LPS-induced acute lung injury” (Eur J Med Chem, 2024)
Calls of active or inactive are those of the source.

How the values were obtained:
Mus musculus [1] = assay: Antiinflammatory activity against TPA-induced mouse ear edema model assessed as reduction in ear edema at 40 mg/kg, po administered for 7 consecutive days; format: functional; parameters: scale not given: the % may be the effect or the level left; conditions: time 7 day
[2] = Cytotoxicity against mouse RAW264.7 cells assessed as cell viability at 40 uM incubated for 24 hrs by MTT assay relative to control; format: toxicity, cell-based; conditions: read-out: Activity
RAW264.7 [3] = assay: Anti-inflammatory activity against LPS-induced mouse RAW264.7 cells assessed as inhibition of NO production at 10 uM preincubated for 2 hrs followed by LPS addition and measured after 24 hrs by Griess reagent-based microplate reader analysis relative to control; format: functional; parameters: scale not given: the % may be the effect or the level left; conditions: time 26 hrs
RAW264.7 [4] = assay: Anti-inflammatory activity against LPS-induced mouse RAW264.7 cells assessed as inhibition of NO production at 20 uM preincubated for 2 hrs followed by LPS addition and measured after 24 hrs by Griess reagent-based microplate reader analysis relative to control; format: functional; parameters: scale not given: the % may be the effect or the level left; conditions: time 26 hrs
[5] = molecular target: T1, Stimulator of interferon genes protein (Mus musculus) (UniProt Q3TBT3); assay: Binding affinity to STING in mouse RAW264.7 cells assessed as reduction in protein degradation at 40 uM at 40 to 61 degreeC incubated for 12 hrs by thermal shift assay; format: cell-based
T1 sequence (whole entry): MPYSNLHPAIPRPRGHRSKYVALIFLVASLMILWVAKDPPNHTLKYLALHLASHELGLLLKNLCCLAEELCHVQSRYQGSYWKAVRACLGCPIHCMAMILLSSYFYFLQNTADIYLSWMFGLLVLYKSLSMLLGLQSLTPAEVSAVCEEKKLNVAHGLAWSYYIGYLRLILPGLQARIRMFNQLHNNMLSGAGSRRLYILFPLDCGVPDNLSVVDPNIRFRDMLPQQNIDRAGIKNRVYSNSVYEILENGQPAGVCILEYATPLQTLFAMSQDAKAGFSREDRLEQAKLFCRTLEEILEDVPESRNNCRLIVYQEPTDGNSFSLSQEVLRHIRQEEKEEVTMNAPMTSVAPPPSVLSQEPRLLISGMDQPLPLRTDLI

[6] = molecular target: T1, Stimulator of interferon genes protein (Mus musculus); assay: Binding affinity to STING in mouse RAW264.7 cells assessed as protein stabilization at 49 degreeC incubated for 12 hrs by thermal shift assay; format: cell-based; conditions: dose 0.4-40 µM
[7] = molecular target: T1, Stimulator of interferon genes protein (Mus musculus); assay: Binding affinity to STING in mouse RAW264.7 cells assessed as inhibition of protein degradation at 4 to 40 uM at 49 degreeC incubated for 12 hrs by thermal shift assay; format: cell-based; conditions: dose 4-40 µM
RAW264.7 [8] = assay: Anti-inflammatory activity against LPS-induced mouse RAW264.7 cells assessed as inhibition of p65 nuclear translocation at 5 uM preincubated for 2 hrs followed by LPS addition and measured after 2 hrs by FITC/DAPI staining based laser confocal microscopy analysis; format: functional, cell-based; conditions: time 4.0 hrs
RAW264.7 [9] = assay: Anti-inflammatory activity against LPS-induced mouse RAW264.7 cells assessed as inhibition of IRF3 nuclear translocation at 5 uM preincubated for 2 hrs followed by LPS addition and measured after 2 hrs by FITC/DAPI staining based laser confocal microscopy analysis; format: functional, cell-based; conditions: time 4.0 hrs
RAW264.7 [10] = assay: Anti-inflammatory activity against LPS-induced mouse RAW264.7 cells assessed as decrease in IL-6 expression at 1.25 to 5 uM preincubated for 2 hrs followed by LPS addition and measured after 12 hrs by ELISA; format: functional, cell-based; conditions: dose 1.25-5 µM, time 14.0 hrs
RAW264.7 [11] = assay: Anti-inflammatory activity against LPS-induced mouse RAW264.7 cells assessed as decrease in TNF-alpha expression at 1.25 to 5 uM preincubated for 2 hrs followed by LPS addition and measured after 12 hrs by ELISA; format: functional, cell-based; conditions: dose 1.25-5 µM, time 14.0 hrs
RAW264.7 [12] = assay: Anti-inflammatory activity against LPS-induced mouse RAW264.7 cells assessed as decrease in IFN-beta expression at 1.25 to 5 uM preincubated for 2 hrs followed by LPS addition and measured after 12 hrs by ELISA; format: functional, cell-based; conditions: dose 1.25-5 µM, time 14.0 hrs
RAW264.7 [13] = assay: Anti-inflammatory activity against LPS-induced mouse RAW264.7 cells assessed as decrease in TBK1 phosphorylation at 1.25 to 5 uM by Western blotting analysis; format: functional, cell-based; conditions: dose 1.25-5 µM
RAW264.7 [14] = assay: Anti-inflammatory activity against LPS-induced mouse RAW264.7 cells assessed as decrease in IRF3 phosphorylation at 1.25 to 5 uM by Western blotting analysis; format: functional, cell-based; conditions: dose 1.25-5 µM
RAW264.7 [15] = assay: Anti-inflammatory activity against LPS-induced mouse RAW264.7 cells assessed as decrease in p65 phosphorylation at 1.25 to 5 uM by Western blotting analysis; format: functional, cell-based; conditions: dose 1.25-5 µM
RAW264.7 [16] = assay: Anti-inflammatory activity against LPS-induced mouse RAW264.7 cells assessed as decrease in IkappaB phosphorylation at 1.25 to 5 uM by Western blotting analysis; format: functional, cell-based; conditions: dose 1.25-5 µM
RAW264.7 [17] = assay: Anti-inflammatory activity against LPS-induced mouse RAW264.7 cells assessed as decrease in STING protein level at 1.25 to 5 uM by Western blotting analysis; format: functional, cell-based; conditions: dose 1.25-5 µM
Mus musculus [18] = assay: Anti-inflammatory activity against LPS-stimulated BALB/c mouse acute lung injury model assessed as decrease in pulmonary edema in lung tissue at 1.25 to 5 mg/kg, po administered for 3 days by hematoxylin and eosin staining based analysis; format: functional, organism-based; conditions: dose 1.25-5 mg/kg, time 3.0 day
Mus musculus [19] = assay: Anti-inflammatory activity against LPS-stimulated BALB/c mouse acute lung injury model assessed as decrease in MDA level in lung tissue at 1.25 to 5 mg/kg, po administered for 3 days by colorimetric method; format: functional, organism-based; conditions: dose 1.25-5 mg/kg, time 3.0 day
Mus musculus [20] = assay: Anti-inflammatory activity against LPS-stimulated BALB/c mouse acute lung injury model assessed as increase in SOD level in lung tissue at 1.25 to 5 mg/kg, po administered for 3 days by colorimetric method; format: functional, organism-based; conditions: dose 1.25-5 mg/kg, time 3.0 day
Mus musculus [21] = assay: Anti-inflammatory activity against LPS-stimulated BALB/c mouse acute lung injury model assessed as decrease in STING expression at 1.25 to 5 mg/kg, po administered for 3 days by Western blotting analysis; format: functional, organism-based; conditions: dose 1.25-5 mg/kg, time 3.0 day
Mus musculus [22] = assay: Anti-inflammatory activity against LPS-stimulated BALB/c mouse acute lung injury model assessed as decrease in TBK1 phosphorylation at 1.25 to 5 mg/kg, po administered for 3 days by Western blotting analysis; format: functional, organism-based; conditions: dose 1.25-5 mg/kg, time 3.0 day
Mus musculus [23] = assay: Anti-inflammatory activity against LPS-stimulated BALB/c mouse acute lung injury model assessed as decrease in IRF3 phosphorylation at 1.25 to 5 mg/kg, po administered for 3 days by Western blotting analysis; format: functional, organism-based; conditions: dose 1.25-5 mg/kg, time 3.0 day
Mus musculus [24] = assay: Anti-inflammatory activity against LPS-stimulated BALB/c mouse acute lung injury model assessed as decrease in p65 phosphorylation at 1.25 to 5 mg/kg, po administered for 3 days by Western blotting analysis; format: functional, organism-based; conditions: dose 1.25-5 mg/kg, time 3.0 day
Mus musculus [25] = assay: Anti-inflammatory activity against LPS-stimulated BALB/c mouse acute lung injury model assessed as decrease in IkappaB phosphorylation at 1.25 to 5 mg/kg, po administered for 3 days by Western blotting analysis; format: functional, organism-based; conditions: dose 1.25-5 mg/kg, time 3.0 day
Mus musculus [26] = assay: Anti-inflammatory activity against LPS-stimulated BALB/c mouse assessed as decrease in IL-6 level in BALF administered for 3 days by Western blotting analysis; format: functional, organism-based; conditions: dose 1.25-5 mg/kg, route po, time 3.0 day
Mus musculus [27] = assay: Anti-inflammatory activity against LPS-stimulated BALB/c mouse assessed as decrease in TNF-alpha level in BALF administered for 3 days by Western blotting analysis; format: functional, organism-based; conditions: dose 1.25-5 mg/kg, route po, time 3.0 day
Mus musculus [28] = assay: Anti-inflammatory activity against LPS-stimulated BALB/c mouse assessed as decrease in IFN-beta level in BALF administered for 3 days by Western blotting analysis; format: functional, organism-based; conditions: dose 1.25-5 mg/kg, route po, time 3.0 day
RAW264.7 [29] = assay: Anti-inflammatory activity against LPS-induced mouse RAW264.7 cells assessed as inhibition of p65 nuclear translocation preincubated for 2 hrs followed by LPS addition and measured after 2 hrs by FITC/DAPI staining based laser confocal microscopy analysis; format: functional, cell-based; conditions: time 4.0 hrs
RAW264.7 [30] = assay: Anti-inflammatory activity against LPS-induced mouse RAW264.7 cells assessed as inhibition of IRF3 nuclear translocation preincubated for 2 hrs followed by LPS addition and measured after 2 hrs by FITC/DAPI staining based laser confocal microscopy analysis; format: functional, cell-based; conditions: time 4.0 hrs
RAW264.7 [31] = assay: Anti-inflammatory activity against LPS-induced mouse RAW264.7 cells assessed as decrease in IL-6 expression preincubated for 2 hrs followed by LPS addition and measured after 12 hrs by ELISA; format: functional, cell-based; conditions: time 14.0 hrs
RAW264.7 [32] = assay: Anti-inflammatory activity against LPS-induced mouse RAW264.7 cells assessed as decrease in TNF-alpha expression preincubated for 2 hrs followed by LPS addition and measured after 12 hrs by ELISA; format: functional, cell-based; conditions: time 14.0 hrs
RAW264.7 [33] = assay: Anti-inflammatory activity against LPS-induced mouse RAW264.7 cells assessed as decrease in IFN-beta expression preincubated for 2 hrs followed by LPS addition and measured after 12 hrs by ELISA; format: functional, cell-based; conditions: time 14.0 hrs
RAW264.7 [34] = assay: Anti-inflammatory activity against LPS-induced mouse RAW264.7 cells assessed as decrease in TBK1 phosphorylation at 1 uM by Western blotting analysis; format: functional, cell-based
RAW264.7 [35] = assay: Anti-inflammatory activity against LPS-induced mouse RAW264.7 cells assessed as decrease in IRF3 phosphorylation at 1 uM by Western blotting analysis; format: functional, cell-based
RAW264.7 [36] = assay: Anti-inflammatory activity against LPS-induced mouse RAW264.7 cells assessed as decrease in p65 phosphorylation at 1 uM by Western blotting analysis; format: functional, cell-based
RAW264.7 [37] = assay: Anti-inflammatory activity against LPS-induced mouse RAW264.7 cells assessed as decrease in IkappaB phosphorylation at 1 uM by Western blotting analysis; format: functional, cell-based
RAW264.7 [38] = assay: Anti-inflammatory activity against LPS-induced mouse RAW264.7 cells assessed as decrease in STING protein level at 1 uM by Western blotting analysis; format: functional, cell-based
Mus musculus [39] = assay: Anti-inflammatory activity against LPS-stimulated BALB/c mouse acute lung injury model assessed as decrease in STING expression at 2.5 mg/kg, po administered for 3 days by Western blotting analysis; format: functional, organism-based; conditions: time 3.0 day
Mus musculus [40] = assay: Anti-inflammatory activity against LPS-stimulated BALB/c mouse acute lung injury model assessed as decrease in TBK1 phosphorylation at 2.5 mg/kg, po administered for 3 days by Western blotting analysis; format: functional, organism-based; conditions: time 3.0 day
Mus musculus [41] = assay: Anti-inflammatory activity against LPS-stimulated BALB/c mouse acute lung injury model assessed as decrease in IRF3 phosphorylation at 2.5 mg/kg, po administered for 3 days by Western blotting analysis; format: functional, organism-based; conditions: time 3.0 day
Mus musculus [42] = assay: Anti-inflammatory activity against LPS-stimulated BALB/c mouse acute lung injury model assessed as decrease in p65 phosphorylation at 2.5 mg/kg, po administered for 3 days by Western blotting analysis; format: functional, organism-based; conditions: time 3.0 day
Mus musculus [43] = assay: Anti-inflammatory activity against LPS-stimulated BALB/c mouse acute lung injury model assessed as decrease in IkappaB phosphorylation at 2.5 mg/kg, po administered for 3 days by Western blotting analysis; format: functional, organism-based; conditions: time 3.0 day

CC1(C)C(=O)/C(=C\c2cnccn2)C[C@]2(C)[C@H]3CC=C4[C@@H]5C[C@@](C)(C(=O)O)CC[C@]5(C)CC[C@@]4(C)[C@]3(C)CC[C@@H]12
59.69%: Activity (Mus musculus [1])

CC1(C)CC[C@]2(C(=O)OCc3ccccc3)CC[C@]3(C)C(=CC[C@@H]4[C@@]5(C)CCC(=O)[C@@](C)(COC(=O)CCCNC(=O)CCCC[C@@H]6CCSS6)[C@@H]5CC[C@]43C)[C@@H]2C1
69.78%: Activity (RAW264.7 [3])
100%: viability at 24 h, 40 µM [2]
active: Activity [5] | Activity [6] Dose-Dependent Effect | Activity [7] | Activity (RAW264.7 [8]) | Activity (RAW264.7 [9]) | Activity (RAW264.7 [10]) | Activity (RAW264.7 [11]) | Activity (RAW264.7 [12]) | Activity (RAW264.7 [13]) | Activity (RAW264.7 [14]) | Activity (RAW264.7 [15]) | Activity (RAW264.7 [16]) | Activity (RAW264.7 [17]) | Activity (Mus musculus [18]) | Activity (Mus musculus [19]) | Activity (Mus musculus [20]) | Activity (Mus musculus [21]) | Activity (Mus musculus [22]) | Activity (Mus musculus [23]) | Activity (Mus musculus [24]) | Activity (Mus musculus [25]) | Activity (Mus musculus [26]) Dose-Dependent Effect | Activity (Mus musculus [27]) Dose-Dependent Effect | Activity (Mus musculus [28]) Dose-Dependent Effect
81.7%: Activity (RAW264.7 [4])

O=C(Nc1ccc(I)cc1)c1ccc([N+](=O)[O-])o1
active: Activity (RAW264.7 [29]) | Activity (RAW264.7 [30]) | Activity (RAW264.7 [31]) | Activity (RAW264.7 [32]) | Activity (RAW264.7 [33]) | Activity (RAW264.7 [34]) | Activity (RAW264.7 [35]) | Activity (RAW264.7 [36]) | Activity (RAW264.7 [37]) | Activity (RAW264.7 [38]) | Activity (Mus musculus [39]) | Activity (Mus musculus [40]) | Activity (Mus musculus [41]) | Activity (Mus musculus [42]) | Activity (Mus musculus [43])
